# Earlier results, collected in PubChem BioAssay AID1259409 (Chemical Carcinogenesis Research Information System (CCRIS), 2018).
# System: rodent chemically induced tumor inhibition, incidence and multiplicity
# Assay: CCRIS tumor inhibitor studies
# Conditions: Route [Inhibitor]: ORAL, Promoter: NONE USED
compound,measurement,setting,value
CC1=C(/C=C/C(C)=C/C=C/C(C)=C/C(=O)NCCO)C(C)(C)CCC1,"tumour outcome (control, treated, inhibition, significance)","Carcinogen: N-NITROSOBIS(2-OXYPROPYL)AMINE, 60599-38-4, Dose [Inhibitor]: 0.05, 0.1 OR 0.2 MM/KG DIET FOR 32 WK STARTING 1 WK AFTER THE CARCINOGEN DOSE (STUDY DURATION: 33 WK), Species: HAMSTER, Strain/Sex: SYRIAN/FEMALE, Target Tissue: Type of Lesion: PANCREAS: CARCINOMA IN SITU, Dose [Carcinogen]: 40 MG/KG, ONCE, ONE WK PRIOR TO START OF AGENT TREATMENT","1/10 (10%), 11/29 (38%), -280%, not significant"
same,"tumour outcome (control, treated, inhibition, significance)","Carcinogen: N-NITROSOBIS(2-OXYPROPYL)AMINE, 60599-38-4, Dose [Inhibitor]: 0.05, 0.1 OR 0.2 MM/KG DIET FOR 32 WK STARTING 1 WK AFTER THE CARCINOGEN DOSE (STUDY DURATION: 33 WK), Species: HAMSTER, Strain/Sex: SYRIAN/FEMALE, Target Tissue: Type of Lesion: PANCREAS: INTRADUCTAL CARCINOMA, Dose [Carcinogen]: 40 MG/KG, ONCE, ONE WK PRIOR TO START OF AGENT TREATMENT","2/10 (20%), 6/29 (21%), -5%, not significant"
same,"tumour outcome (control, treated, inhibition, significance)","Carcinogen: N-NITROSOBIS(2-OXYPROPYL)AMINE, 60599-38-4, Dose [Inhibitor]: 0.05, 0.1 OR 0.2 MM/KG DIET FOR 32 WK STARTING 1 WK AFTER THE CARCINOGEN DOSE (STUDY DURATION: 33 WK), Species: HAMSTER, Strain/Sex: SYRIAN/MALE, Target Tissue: Type of Lesion: PANCREAS: ADENOCARCINOMA, Dose [Carcinogen]: 40 MG/KG, ONCE, ONE WK PRIOR TO START OF AGENT TREATMENT","1/12 (8%), 4/29 (14%), -75%, not significant"
same,"tumour outcome (control, treated, inhibition, significance)","Carcinogen: N-NITROSOBIS(2-OXYPROPYL)AMINE, 60599-38-4, Dose [Inhibitor]: 0.05, 0.1 OR 0.2 MM/KG DIET FOR 32 WK STARTING 1 WK AFTER THE CARCINOGEN DOSE (STUDY DURATION: 33 WK), Species: HAMSTER, Strain/Sex: SYRIAN/MALE, Target Tissue: Type of Lesion: PANCREAS: CARCINOMA IN SITU, Dose [Carcinogen]: 40 MG/KG, ONCE, ONE WK PRIOR TO START OF AGENT TREATMENT","3/12 (25%), 5/29 (17%), 32%, not significant"
same,"tumour outcome (control, treated, inhibition, significance)","Carcinogen: N-NITROSOBIS(2-OXYPROPYL)AMINE, 60599-38-4, Dose [Inhibitor]: 0.05, 0.1 OR 0.2 MM/KG DIET FOR 32 WK STARTING 1 WK AFTER THE CARCINOGEN DOSE (STUDY DURATION: 33 WK), Species: HAMSTER, Strain/Sex: SYRIAN/MALE, Target Tissue: Type of Lesion: PANCREAS: INTRADUCTAL CARCINOMA, Dose [Carcinogen]: 40 MG/KG, ONCE, ONE WK PRIOR TO START OF AGENT TREATMENT","2/12 (17%), 0/29 (0%), 100%, not significant"
same,"tumour outcome (control, treated, inhibition, significance)","Carcinogen: N-NITROSOBIS(2-OXYPROPYL)AMINE, 60599-38-4, Dose [Inhibitor]: 0.05, 0.1 OR 0.2 MM/KG DIET FOR 32 WK STARTING 1 WK AFTER THE CARCINOGEN DOSE (STUDY DURATION: 33 WK), Species: HAMSTER, Strain/Sex: SYRIAN/MALE, Target Tissue: Type of Lesion: PANCREAS: MICROCARCINOMA, Dose [Carcinogen]: 40 MG/KG, ONCE, ONE WK PRIOR TO START OF AGENT TREATMENT","3/12 (25%), 4/29 (14%), 44%, not significant"
same,"tumour outcome (control, treated, inhibition, significance)","Carcinogen: NONE USED, Dose [Inhibitor]: 687 MG/KG DIET DAILY FOR 54 WK (STUDY DURATION: 54 WK), Species: RAT, Strain/Sex: ACI/SEGHAPBR/MALE, Target Tissue: Type of Lesion: ADRENAL GLAND: TUMOR","15/43 (35%), 22/44 (50%), -43%, not significant"
same,"tumour outcome (control, treated, inhibition, significance)","Carcinogen: NONE USED, Dose [Inhibitor]: 687 MG/KG DIET DAILY FOR 54 WK (STUDY DURATION: 54 WK), Species: RAT, Strain/Sex: ACI/SEGHAPBR/MALE, Target Tissue: Type of Lesion: PANCREAS: ISLET CELL ADENOMA","1/40 (3%), 8/44 (18%), -500%, p<0.05"
same,"tumour outcome (control, treated, inhibition, significance)","Carcinogen: NONE USED, Dose [Inhibitor]: 687 MG/KG DIET DAILY FOR 54 WK (STUDY DURATION: 54 WK), Species: RAT, Strain/Sex: ACI/SEGHAPBR/MALE, Target Tissue: Type of Lesion: PITUITARY GLAND: ADENOMA, CARCINOMA","20/39 (51%), 19/41 (46%), 10%, not significant"
same,"tumour outcome (control, treated, inhibition, significance)","Carcinogen: NONE USED, Dose [Inhibitor]: 687 MG/KG DIET DAILY FOR 54 WK (STUDY DURATION: 54 WK), Species: RAT, Strain/Sex: ACI/SEGHAPBR/MALE, Target Tissue: Type of Lesion: PROSTATE GLAND: ADENOMA, CARCINOMA","19/44 (43%), 12/43 (28%), 35%, not significant"
same,"tumour outcome (control, treated, inhibition, significance)","Carcinogen: NONE USED, Dose [Inhibitor]: 687 MG/KG DIET DAILY FOR 54 WK (STUDY DURATION: 54 WK), Species: RAT, Strain/Sex: ACI/SEGHAPBR/MALE, Target Tissue: Type of Lesion: SKIN: TUMOR","12/45 (27%), 5/44 (11%), 59%, not significant"
same,"tumour outcome (control, treated, inhibition, significance)","Carcinogen: NONE USED, Dose [Inhibitor]: 687 MG/KG DIET DAILY FOR 54 WK (STUDY DURATION: 54 WK), Species: RAT, Strain/Sex: ACI/SEGHAPBR/MALE, Target Tissue: Type of Lesion: TESTES: INTERSTITIAL CELL TUMOR","21/45 (47%), 27/44 (61%), -30%, not significant"
